# Columns and labels:
# Assay type in all cases: in vivo
# [1] = system: barnyardgrass (Echinochloa crus-galli); assay: Test A postemergence application, visual injury rating 0-100; details: Postemergence, 10 days, 0 is no effect, 100 is complete control
# How it was run: (§1)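 Seeds sown in loam-sand blend got a preemergence directed soil spray, or emerged plants (2-10 cm, one- to two-leaf) got a postemergence spray, of compound in non-phytotoxic solvent with surfactant. After 10 days in greenhouse, injury rated visually versus untreated controls on a 0 (no effect) to 100 (complete control) scale.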
# [2] = system: wheat (Triticum aestivum); assay: as above; details: Postemergence, 10 days, 0 is no effect, 100 is complete control
# How it was run: as §1
# [3] = system: horseweed (Erigeron canadensis); assay: as above; details: Postemergence, 10 days, 0 is no effect, 100 is complete control
# How it was run: as §1
# [4] = system: oat, wild (wild oat, Avena fatua); assay: as above; details: Postemergence, 10 days, 0 is no effect, 100 is complete control
# How it was run: as §1
# [5] = system: galium (catchweed bedstraw, Galium aparine); assay: as above; details: Postemergence, 10 days, 0 is no effect, 100 is complete control
# How it was run: as §1
# [6] = system: foxtail, giant (giant foxtail, Setaria faberi); assay: as above; details: 10 days, 0 is no effect, 100 is complete control
# How it was run: as §1
# [7] = system: blackgrass (Alopecurus myosuroides); assay: as above; details: Postemergence, 10 days, 0 is no effect, 100 is complete control
# How it was run: as §1
# [8] = system: ragweed (common ragweed, Ambrosia artemisiifolia); assay: as above; details: Postemergence, 10 days, 0 is no effect, 100 is complete control
# How it was run: as §1
# [9] = system: palmer (palmer amaranth, palmer pigweed, Amaranthus palmeri); assay: as above; details: Postemergence, 10 days, 0 is no effect, 100 is complete control
# How it was run: as §1
# corn (Zea mays) [10] = assay: as above; details: Postemergence, 10 days, 0 is no effect, 100 is complete control
# How it was run: as §1
# [11] = system: ryegrass, Italian (italian ryegrass, Lolium multiflorum); assay: as above; details: Postemergence, 10 days, 0 is no effect, 100 is complete control
# How it was run: as §1
# soybean (Glycine max) [12] = assay: as above; details: Postemergence, 10 days, 0 is no effect, 100 is complete control
# How it was run: as §1
# kochia (Bassia scoparia) [13] = assay: as above; details: Postemergence, 10 days, 0 is no effect, 100 is complete control
# How it was run: as §1
# [14] = system: barnyardgrass (Echinochloa crus-galli); assay: Test A preemergence soil spray, visual injury rating 0-100; details: 10 days, 0 = no effect, 100 = complete control
# How it was run: as §1
# [15] = system: wheat (Triticum aestivum); assay: as above; details: 10 days, 0 = no effect, 100 = complete control
# How it was run: as §1
# [16] = system: oat, wild (wild oat, Avena fatua); assay: as above; details: 10 days, 0 = no effect, 100 = complete control
# How it was run: as §1
# [17] = system: foxtail, giant (giant foxtail, Setaria faberi); assay: as above; details: 10 days, 0 = no effect, 100 = complete control
# How it was run: as §1
# [18] = system: blackgrass (Alopecurus myosuroides); assay: as above; details: 10 days, 0 = no effect, 100 = complete control
# How it was run: as §1
# [19] = system: ragweed (common ragweed, Ambrosia artemisiifolia); assay: as above; details: 10 days, 0 = no effect, 100 = complete control
# How it was run: as §1
# [20] = system: palmer (palmer amaranth, palmer pigweed, Amaranthus palmeri); assay: as above; details: 10 days, 0 = no effect, 100 = complete control
# How it was run: as §1
# corn (Zea mays) [21] = assay: as above; details: 10 days, 0 = no effect, 100 = complete control
# How it was run: as §1
# [22] = system: ryegrass, Italian (italian ryegrass, Lolium multiflorum); assay: as above; details: 10 days, 0 = no effect, 100 = complete control
# How it was run: as §1
# soybean (Glycine max) [23] = assay: as above; details: 10 days, 0 = no effect, 100 = complete control
# How it was run: as §1
# kochia (Bassia scoparia) [24] = assay: as above; details: 10 days, 0 = no effect, 100 = complete control
# How it was run: as §1
# [25] = system: sedge, umbrella (small-flower umbrella sedge, Cyperus difformis); assay: Test B flooded paddy test, visual plant response rating 0-100; details: 250 g ai/ha, Flood, applied to paddy water, evaluated after 13 days
# How it was run: (§2)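 Paddy-water application: test compounds went directly into water flooded 3 cm above the soil surface, with plants at 2 leaves. After a 13-day greenhouse period, responses were judged by eye relative to controls; a dash marks an untested entry.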
# rice (Oryza sativa) = assay: as above; details: 250 g ai/ha, Flood, applied to paddy water, evaluated after 13 days
# How it was run: as §2
# [26] = system: ducksalad (Heteranthera limosa); assay: as above; details: 250 g ai/ha, Flood, applied to paddy water, evaluated after 13 days
# How it was run: as §2
# [27] = system: barnyardgrass (Echinochloa crusgalli); assay: as above; details: 250 g ai/ha, Flood, applied to paddy water, evaluated after 13 days
# How it was run: as §2
compound,measurement,setting,value
CC1(C(=O)NC2C=CC(C(=O)NS(C)(=O)=O)C2)CN(c2cc(F)cc(F)c2)C(=O)O1 (stereo not shown) [Compound 30],Barnyardgrass plant response rating (0 to 100 scale),[1]; 125 g ai/ha,100
same,Barnyardgrass plant response rating (0 to 100 scale),[1]; 500 g ai/ha,100
same,Wheat plant response rating (0 to 100 scale),[2]; 125 g ai/ha,80
same,Wheat plant response rating (0 to 100 scale),[2]; 500 g ai/ha,80
same,Horseweed plant response rating (0 to 100 scale),[3]; 125 g ai/ha,30
same,Horseweed plant response rating (0 to 100 scale),[3]; 500 g ai/ha,80
same,"Oat, Wild plant response rating (0 to 100 scale)",[4]; 125 g ai/ha,100
same,"Oat, Wild plant response rating (0 to 100 scale)",[4]; 500 g ai/ha,100
same,Galium plant response rating (0 to 100 scale),[5]; 125 g ai/ha,80
same,Galium plant response rating (0 to 100 scale),[5]; 500 g ai/ha,80
same,"Foxtail, Giant plant response rating (0 to 100 scale)",[6]; 125 g ai/ha,90
same,"Foxtail, Giant plant response rating (0 to 100 scale)",[6]; 500 g ai/ha,90
same,Blackgrass plant response rating (0 to 100 scale),[7]; 125 g ai/ha,70
same,Blackgrass plant response rating (0 to 100 scale),[7]; 500 g ai/ha,100
same,Ragweed plant response rating (0 to 100 scale),[8]; 125 g ai/ha,20
same,Ragweed plant response rating (0 to 100 scale),[8]; 500 g ai/ha,80
same,"Amaranth, Palmer / Pigweed, Palmer plant response rating (0 to 100 scale)",[9]; 125 g ai/ha,90
same,"Amaranth, Palmer / Pigweed, Palmer plant response rating (0 to 100 scale)",[9]; 500 g ai/ha,90
same,Corn plant response rating (0 to 100 scale),corn (Zea mays) [10]; 125 g ai/ha,60
same,Corn plant response rating (0 to 100 scale),corn (Zea mays) [10]; 500 g ai/ha,90
same,"Ryegrass, Italian plant response rating (0 to 100 scale)",[11]; 125 g ai/ha,80
same,"Ryegrass, Italian plant response rating (0 to 100 scale)",[11]; 500 g ai/ha,100
same,Soybean plant response rating (0 to 100 scale),soybean (Glycine max) [12]; 125 g ai/ha,60
same,Soybean plant response rating (0 to 100 scale),soybean (Glycine max) [12]; 500 g ai/ha,70
same,Kochia plant response rating (0 to 100 scale),kochia (Bassia scoparia) [13]; 125 g ai/ha,70
same,Kochia plant response rating (0 to 100 scale),kochia (Bassia scoparia) [13]; 500 g ai/ha,80
same,Barnyardgrass plant response rating (0 to 100 scale),[14]; 125 g ai/ha,60
same,Barnyardgrass plant response rating (0 to 100 scale),[14]; 500 g ai/ha,100
same,Wheat plant response rating (0 to 100 scale),[15]; 125 g ai/ha,90
same,Wheat plant response rating (0 to 100 scale),[15]; 500 g ai/ha,100
same,"Oat, Wild plant response rating (0 to 100 scale)",[16]; 125 g ai/ha,60
same,"Oat, Wild plant response rating (0 to 100 scale)",[16]; 500 g ai/ha,90
same,"Foxtail, Giant plant response rating (0 to 100 scale)",[17]; 125 g ai/ha,30
same,"Foxtail, Giant plant response rating (0 to 100 scale)",[17]; 500 g ai/ha,100
same,Blackgrass plant response rating (0 to 100 scale),[18]; 125 g ai/ha,80
same,Blackgrass plant response rating (0 to 100 scale),[18]; 500 g ai/ha,90
same,Ragweed plant response rating (0 to 100 scale),[19]; 125 g ai/ha,40
same,Ragweed plant response rating (0 to 100 scale),[19]; 500 g ai/ha,60
same,"Amaranth, Palmer plant response rating (0 to 100 scale)",[20]; 125 g ai/ha,80
same,"Amaranth, Palmer plant response rating (0 to 100 scale)",[20]; 500 g ai/ha,100
same,Corn plant response rating (0 to 100 scale),corn (Zea mays) [21]; 125 g ai/ha,70
same,Corn plant response rating (0 to 100 scale),corn (Zea mays) [21]; 500 g ai/ha,80
same,"Ryegrass, Italian plant response rating (0 to 100 scale)",[22]; 125 g ai/ha,70
same,"Ryegrass, Italian plant response rating (0 to 100 scale)",[22]; 500 g ai/ha,90
same,Soybean plant response rating (0 to 100 scale),soybean (Glycine max) [23]; 125 g ai/ha,0
same,Soybean plant response rating (0 to 100 scale),soybean (Glycine max) [23]; 500 g ai/ha,80
same,Kochia plant response rating (0 to 100 scale),kochia (Bassia scoparia) [24]; 125 g ai/ha,90
same,Kochia plant response rating (0 to 100 scale),kochia (Bassia scoparia) [24]; 500 g ai/ha,90
same,"Plant response rating, Sedge, Umbrella (0 to 100 scale, 0 is no effect and 100 is complete control)",[25],95
same,"Plant response rating, Rice (0 to 100 scale, 0 is no effect and 100 is complete control)",rice (Oryza sativa),0
same,"Plant response rating, Ducksalad (0 to 100 scale, 0 is no effect and 100 is complete control)",[26],65
same,"Plant response rating, Barnyardgrass (0 to 100 scale, 0 is no effect and 100 is complete control)",[27],15

# From patent publication US20260285850A1, “SUBSTITUTED OXAZOLIDINONES AND IMIDAZOLINONES AS HERBICIDES” (FMC CORPORATION, priority 2023, published 2026)
